Measured values from publication PMC10403075, “Short hydrocarbon stapled ApoC2-mimetic peptides activate lipoprotein lipase and lower plasma triglycerides in mice” (Frontiers in Cardiovascular Medicine, 2023).
pEC50: −log10 of the molar value. Positions of bridges follow the written chain, without caps; N, C: chain ends. Non-standard residues stand in square brackets, D forms with d. Residues, ends and D or L forms follow the SMILES beside them. R8 = C=CCCCCCC[C@@](C)(N)C(=O)O; S5 = C=CCCC[C@](C)(N)C(=O)O

Legend:
[1] = biological target: T1, LPL from bovine milk (Bos taurus, UniProt P11151); experiment: In vitro LPL activity assay (NEFA generation, ApoC2-deficient plasma substrate); assay type: biochemical; conditions: 0-2 µM peptide, ApoC2-deficient plasma substrate, NEFA read-out, triplicates; for pEC50: 0.83 nM bovine milk LPL, 30 min on ice then 37°C 1 h, read-out: EC50 for stimulating lipolysis (LPL activation); for in vitro LPL activation, dose response (result in words): bovine milk LPL, 37°C 1 h
T1 construct: LPL from bovine milk (Sigma-Aldrich); purchased Sigma-Aldrich; host or cells: bovine milk (natural source)
T1 sequence (P11151 29-478): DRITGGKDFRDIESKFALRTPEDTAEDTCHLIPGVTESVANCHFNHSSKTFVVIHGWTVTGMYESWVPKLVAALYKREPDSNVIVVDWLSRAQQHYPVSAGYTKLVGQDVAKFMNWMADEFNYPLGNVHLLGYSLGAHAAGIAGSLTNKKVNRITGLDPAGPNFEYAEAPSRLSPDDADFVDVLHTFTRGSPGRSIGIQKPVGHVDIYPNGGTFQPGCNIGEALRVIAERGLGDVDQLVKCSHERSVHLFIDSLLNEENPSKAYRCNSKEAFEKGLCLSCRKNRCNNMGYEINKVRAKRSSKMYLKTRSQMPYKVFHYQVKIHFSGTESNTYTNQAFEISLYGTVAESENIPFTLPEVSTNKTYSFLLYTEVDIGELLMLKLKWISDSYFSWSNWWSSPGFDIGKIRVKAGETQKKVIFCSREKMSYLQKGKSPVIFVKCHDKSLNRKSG
Method: LPL activity was determined by measuring the generation of non-esterified fatty acids (NEFA). In a 96-well plate, 0–2 µM of an ApoC2 mimetic peptide, 0.83 nM of LPL from bovine milk (Sigma-Aldrich), ApoC2-deficient ethylenediaminetetraacetic acid (EDTA)-plasma (diluted with PBS to a final TG concentration of 0.67 mg/dl), 2 IU/ml heparin, 0.2% fatty acids free bovine serum albumin (BSA) (ICN Biomedicals), and PBS (Life Technologies) were combined in a final reaction volume of 50 μl. The reaction mixture was pre-incubated on ice for 30 min and incubated at 37°C for 1 h. NEFA were measured with a coupled enzyme reaction (Wako Diagnostics) in a Synergy H1 microplate reader (BioTek, USA).

[2] = DMPC vesicle clearance (solubilization) assay; assay type: physicochemical; conditions: peptide 0-100 µM in 20 mM TRIS pH 8.2, DMPC vesicles 0.5 mg/ml in PBS, absorbance 660 nm, 1 h, 24°C
Method: Dimyristoyl Phosphatidyl Choline (DMPC) (Avanti 850345C) vesicles were made by sonication (0.5 mg/ml) in phosphate buffer saline (PBS). Peptides (0, 25, 50 and 100 µM) in 20 mM TRIS, pH 8.2 were added to DMPC vesicles (0.5 mg/ml) prepared by sonication in PBS and turbidity was monitored in a Victor^3 plate reader (Perkin Elmer, USA) by monitoring absorbance at 660 nm for 1 h at 24°C. Samples were shaken at 300 RPM. Absorbance over time was plotted and areas-under-the-curve (AOC) were calculated. PBS was used as a negative control sample and Triton X-100 at a final concentration of 1% (w/v) was used as positive control.

[3] = biological target: Proteinase K (Parengyodontium album, UniProt P06873); assay type: in vitro ADME; conditions: peptide 0.1 mM, 16 ug/kg Proteinase K, 20 mM ammonium bicarbonate pH 8.2, 37°C, MALDI-TOF with internal standards, first time point 3 h, triplicates
Chain of Proteinase K (P06873 106-384): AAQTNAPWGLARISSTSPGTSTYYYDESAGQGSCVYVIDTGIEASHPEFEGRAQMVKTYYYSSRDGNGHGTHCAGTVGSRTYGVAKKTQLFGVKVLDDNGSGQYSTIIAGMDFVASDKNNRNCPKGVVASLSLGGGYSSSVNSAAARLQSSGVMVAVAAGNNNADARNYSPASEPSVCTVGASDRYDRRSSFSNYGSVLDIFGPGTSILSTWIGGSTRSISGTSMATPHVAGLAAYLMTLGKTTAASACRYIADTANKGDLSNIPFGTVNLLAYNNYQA
Method: (§1) Peptides (0.1 mM) were incubated at 37°C in 20 mM ammonium bicarbonate buffer at pH 8.2, with 10 ug/ml trypsin or […] Proteinase K. To test resistance to Pepsin, peptides (0.1 mM) were incubated with Pepsin (3 mg/ml) in 0.02M acetate buffer (pH 2). The amount of intact peptide was monitored over time by Matrix-assisted laser desorption/ionization time-of-flight (MALDI-TOF) on a Bruker Autoflex III instrument (Bruker Optics, Inc., USA). Internal standards (Bombesin, ACTH (1–17), ACTH (18–39) and Insulin) were used to quantify the relative amount of peptide in each sample.

[4] = tested on: Pepsin; experiment: Peptide proteolysis resistance, pepsin; assay type: in vitro ADME; conditions: peptide 0.1 mM, pepsin 3 mg/ml, 0.02M acetate buffer pH 2, 1 h, MALDI-TOF with internal standards, triplicates
Method: as §1

[5] = tested on: Apoc2^h/h mice; experiment: Plasma lipids in ApoC2-hypomorphic mice after peptide injection; assay type: in vivo, mouse; conditions: single IP 1 umole/kg, n = 5
Method: ApoC2–hypomorphic mice (Apoc2^h/h) ([25]) and human ApoC3-transgenic (hAPOC3-tg) mice ([26]) were fed a regular rodent chow diet (NIH-31 chow diet: Zeigler Brothers Inc.). Peptides dissolved in 20 mM TRIS (pH 8.2) or vehicle control were injected intraperitoneally or intravenously at the indicated concentrations. Blood samples were collected from the retro-orbital sinus with a heparinized capillary tube. Whole blood was centrifuged at 1,000 g for 20 min at 4°C to obtain plasma. All animal procedures were approved by the National Heart, Lung, and Blood Institute Animal Care and Use Committee (protocol #H-0050).

[6] = tested on: trypsin; experiment: Peptide proteolysis resistance, trypsin; assay type: in vitro ADME; conditions: peptide 0.1 mM, 10 ug/ml trypsin, 20 mM ammonium bicarbonate pH 8.2, 37°C, MALDI-TOF with internal standards, first time point 3 h, triplicates
Method: as §1

[7] = Circular dichroism spectroscopy; assay type: physicochemical; conditions: CD 190-250 nm
Method: Circular dichroism (CD) spectra were acquired on a Chirascan Q100 spectrometer. CD spectra were recorded in the190–250 nm range, using a 0.1 cm quartz cell and analyzed with Bettsele® on-line software ([24]).

SMILES: CC[C@H](C)[C@H](NC(=O)CNC(=O)[C@]1(C)CCCC=CCCCCCC[C@@](C)(NC(=O)[C@H](CO)NC(=O)[C@H](CCCCN)NC(=O)[C@H](CO)NC(=O)[C@H](Cc2ccc(O)cc2)NC(=O)[C@H](CC(C)C)NC(=O)[C@H](CC(=O)O)NC(=O)[C@H](CCCNC(=N)N)NC(=O)[C@H](CC(C)C)NC(=O)[C@H](CCCCN)NC(=O)[C@@H](N)CCC(=O)O)C(=O)N[C@@H](C)C(=O)N[C@@H](C)C(=O)N[C@@H](CCSC)C(=O)N[C@@H](CO)C(=O)N[C@@H]([C@@H](C)O)C(=O)N[C@@H](Cc2ccc(O)cc2)C(=O)N1)C(=O)N[C@@H](Cc1ccccc1)C(=O)N[C@H](C(=O)N[C@@H](CC(=O)O)C(=O)N[C@@H](CCC(N)=O)C(=O)N[C@H](C(=O)N[C@@H](CC(C)C)C(=O)N[C@@H](CO)C(=O)N[C@H](C(=O)N[C@@H](CC(C)C)C(=O)N[C@@H](CCCCN)C(=O)NCC(=O)N[C@@H](CCC(=O)O)C(=O)N[C@@H](CCC(=O)O)C(=O)O)C(C)C)C(C)C)[C@@H](C)O [P3] (H-EKLRDLYSKS[R8]AAMSTY[S5]GIFTDQVLSVLKGEE-OH; staple 11-18)
- pEC50 [1]: 7.48 to 7.60

SMILES: CC[C@H](C)[C@@H]1NC(=O)CNC(=O)[C@H]([C@@H](C)O)NC(=O)[C@H](Cc2ccc(O)cc2)NC(=O)[C@H]([C@@H](C)O)NC(=O)[C@](C)(NC(=O)[C@H](CCSC)NC(=O)[C@H](C)NC(=O)[C@H](C)NC(=O)[C@@H](NC(=O)[C@H](CO)NC(=O)[C@H](CCCCN)NC(=O)[C@H](CO)NC(=O)[C@H](Cc2ccc(O)cc2)NC(=O)[C@H](CC(C)C)NC(=O)[C@H](CC(=O)O)NC(=O)[C@H](CCCNC(=N)N)NC(=O)[C@H](CC(C)C)NC(=O)[C@H](CCCCN)NC(=O)[C@@H](N)CCC(=O)O)[C@@H](C)O)CCCCCCC=CCCC[C@@](C)(C(=O)N[C@@H](CC(=O)O)C(=O)N[C@@H](CCC(N)=O)C(=O)N[C@H](C(=O)N[C@@H](CC(C)C)C(=O)N[C@@H](CO)C(=O)N[C@H](C(=O)N[C@@H](CC(C)C)C(=O)N[C@@H](CCCCN)C(=O)NCC(=O)N[C@@H](CCC(=O)O)C(=O)N[C@@H](CCC(=O)O)C(=O)O)C(C)C)C(C)C)NC(=O)[C@H](Cc2ccccc2)NC1=O [P5] (H-EKLRDLYSKSTAAM[R8]TYTGIF[S5]DQVLSVLKGEE-OH; staple 15-22)
- pEC50 [1]: 7.48 to 7.60

SMILES: CC[C@H](C)[C@@H]1NC(=O)CNC(=O)[C@H]([C@@H](C)O)NC(=O)[C@H](Cc2ccc(O)cc2)NC(=O)[C@H]([C@@H](C)O)NC(=O)[C@](C)(NC(=O)[C@H](CCSC)NC(=O)[C@H](C)N)CCCCCCC=CCCC[C@@](C)(C(=O)N[C@@H](CC(=O)O)C(=O)N[C@@H](CCC(N)=O)C(=O)N[C@H](C(=O)N[C@@H](CC(C)C)C(=O)N[C@@H](CO)C(=O)N[C@H](C(=O)N[C@@H](CC(C)C)C(=O)N[C@@H](CCCCN)C(=O)NCC(=O)N[C@@H](CCC(=O)O)C(=O)N[C@@H](CCC(=O)O)C(=O)O)C(C)C)C(C)C)NC(=O)[C@H](Cc2ccccc2)NC1=O [P6] (H-AM[R8]TYTGIF[S5]DQVLSVLKGEE-OH; staple 3-10 (inferred); N-terminus and C-terminus assumed)
- in vitro LPL activation, dose response (result in words) [1]: just as active

SMILES: CC[C@H](C)[C@H](NC(=O)CNC(=O)[C@@H](NC(=O)[C@H](Cc1ccc(O)cc1)NC(=O)[C@@H](NC(=O)[C@H](CO)NC(=O)[C@H](CCSC)NC(=O)[C@H](C)N)[C@@H](C)O)[C@@H](C)O)C(=O)N[C@@H](Cc1ccccc1)C(=O)N[C@H](C(=O)N[C@@H](CC(=O)O)C(=O)N[C@@H](CCC(N)=O)C(=O)N[C@H](C(=O)N[C@@H](CC(C)C)C(=O)N[C@@H](CO)C(=O)N[C@H](C(=O)N[C@@H](CC(C)C)C(=O)N[C@@H](CCCCN)C(=O)NCC(=O)N[C@@H](CCC(=O)O)C(=O)N[C@@H](CCC(=O)O)C(=O)O)C(C)C)C(C)C)[C@@H](C)O [P8, reference compound] (H-AMSTYTGIFTDQVLSVLKGEE-OH)
- DMPC vesicle solubilization [2]: inactive

SMILES: CCCCCCCC(=O)NC(C)(C)C(=O)N[C@@H](CCCC)C(=O)N[C@]1(C)CCCCCCC=CCCCC2(CCCC=CCCCCCC[C@@](C)(C(=O)N[C@@H](CCCCN)C(=O)N(C)CC(=O)N[C@H](CCC(=O)O)C(=O)N[C@H](CCC(=O)O)C(=O)O)NC(=O)[C@H](C(C)C)NC(=O)[C@H](CO)NC(=O)[C@H](CC(C)C)NC(=O)[C@H](C(C)C)NC(=O)[C@H](CCC(N)=O)NC(=O)[C@H](CC(=O)O)NC2=O)NC(=O)[C@H](Cc2ccccc2)NC(=O)[C@H]([C@@H](C)CC)NC(=O)CNC(=O)[C@H]([C@@H](C)O)NC(=O)[C@H](Cc2ccc(O)cc2)NC(=O)[C@H]([C@@H](C)O)NC1=O (some centres unmarked) [SP2a]
- intact full-length peptide after Proteinase K incubation [3]: highly resistant to proteolysis
- in vitro LPL activation, dose response (result in words) [1]: more potent than SP1 and D6PV
- intact full-length peptide after pepsin incubation [4]: highly resistant to proteolysis
- plasma triglycerides, 1-hour time point ([5]; 1 h, compared with D6PV): possibly less effective
- plasma triglycerides, 3-hour time point ([5]; 3 h): lowered plasma triglycerides like D6PV
- intact full-length peptide after trypsin incubation [6]: highly resistant to proteolysis
- secondary structure by CD (result in words) [7]: highly helical
